Measurements: ChEMBL document CHEMBL1909046, “DrugMatrix in vitro pharmacology data”

Columns and labels:
Melanocortin receptor 4 = Melanocortin receptor 4 (Homo sapiens, UniProt P32245); type: cell membranes, Membrane; settings: hek293; further: in other assays of this panel Not Active means under 50% inhibition at 10 µM
[1] = target: T1, C-X-C chemokine receptor type 1 (Homo sapiens, UniProt P25024); further: in other assays of this panel Not Active means under 50% inhibition at 10 µM
T1 sequence (P25024 whole entry): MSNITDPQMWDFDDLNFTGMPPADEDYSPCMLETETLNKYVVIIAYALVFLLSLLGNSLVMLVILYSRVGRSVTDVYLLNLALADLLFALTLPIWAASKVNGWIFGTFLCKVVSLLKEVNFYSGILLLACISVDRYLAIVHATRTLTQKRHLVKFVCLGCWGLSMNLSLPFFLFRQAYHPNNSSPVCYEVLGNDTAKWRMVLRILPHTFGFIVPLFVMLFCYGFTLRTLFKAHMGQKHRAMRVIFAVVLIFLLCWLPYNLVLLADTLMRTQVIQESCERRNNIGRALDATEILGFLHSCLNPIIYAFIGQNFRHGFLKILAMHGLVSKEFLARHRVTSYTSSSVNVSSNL

Estrogen receptor beta = Estrogen receptor beta (Homo sapiens, UniProt Q92731); settings: sf9; further: in other assays of this panel Not Active means under 50% inhibition at 10 µM
Estrogen receptor beta, sequence (Q92731 whole entry): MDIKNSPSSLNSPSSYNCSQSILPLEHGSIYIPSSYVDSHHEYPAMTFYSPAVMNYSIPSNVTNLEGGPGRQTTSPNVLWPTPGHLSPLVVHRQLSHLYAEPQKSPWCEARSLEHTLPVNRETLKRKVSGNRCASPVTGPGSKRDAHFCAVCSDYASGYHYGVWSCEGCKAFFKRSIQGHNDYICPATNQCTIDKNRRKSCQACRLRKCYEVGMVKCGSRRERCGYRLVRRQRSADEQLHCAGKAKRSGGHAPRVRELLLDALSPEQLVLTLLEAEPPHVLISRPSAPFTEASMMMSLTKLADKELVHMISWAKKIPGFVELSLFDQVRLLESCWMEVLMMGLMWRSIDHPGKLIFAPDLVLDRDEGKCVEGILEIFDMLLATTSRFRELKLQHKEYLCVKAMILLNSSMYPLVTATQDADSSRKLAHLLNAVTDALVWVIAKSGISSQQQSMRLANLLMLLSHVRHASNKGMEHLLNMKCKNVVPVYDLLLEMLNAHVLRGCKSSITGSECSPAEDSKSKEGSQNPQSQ

[2] = target: Receptor tyrosine-protein kinase erbB-2 (Homo sapiens, UniProt P04626); assay: biochemical; type: cell-based, Insect cells; settings: insect cells;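 further: inhibition of HER2 kinase enzyme activity, measured with Poly(Glu:Tyr) as the phosphorylation substrate; in other assays of this panel Not Active means under 50% inhibition at 10 µM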
Receptor tyrosine-protein kinase erbB-2, sequence (P04626 whole entry): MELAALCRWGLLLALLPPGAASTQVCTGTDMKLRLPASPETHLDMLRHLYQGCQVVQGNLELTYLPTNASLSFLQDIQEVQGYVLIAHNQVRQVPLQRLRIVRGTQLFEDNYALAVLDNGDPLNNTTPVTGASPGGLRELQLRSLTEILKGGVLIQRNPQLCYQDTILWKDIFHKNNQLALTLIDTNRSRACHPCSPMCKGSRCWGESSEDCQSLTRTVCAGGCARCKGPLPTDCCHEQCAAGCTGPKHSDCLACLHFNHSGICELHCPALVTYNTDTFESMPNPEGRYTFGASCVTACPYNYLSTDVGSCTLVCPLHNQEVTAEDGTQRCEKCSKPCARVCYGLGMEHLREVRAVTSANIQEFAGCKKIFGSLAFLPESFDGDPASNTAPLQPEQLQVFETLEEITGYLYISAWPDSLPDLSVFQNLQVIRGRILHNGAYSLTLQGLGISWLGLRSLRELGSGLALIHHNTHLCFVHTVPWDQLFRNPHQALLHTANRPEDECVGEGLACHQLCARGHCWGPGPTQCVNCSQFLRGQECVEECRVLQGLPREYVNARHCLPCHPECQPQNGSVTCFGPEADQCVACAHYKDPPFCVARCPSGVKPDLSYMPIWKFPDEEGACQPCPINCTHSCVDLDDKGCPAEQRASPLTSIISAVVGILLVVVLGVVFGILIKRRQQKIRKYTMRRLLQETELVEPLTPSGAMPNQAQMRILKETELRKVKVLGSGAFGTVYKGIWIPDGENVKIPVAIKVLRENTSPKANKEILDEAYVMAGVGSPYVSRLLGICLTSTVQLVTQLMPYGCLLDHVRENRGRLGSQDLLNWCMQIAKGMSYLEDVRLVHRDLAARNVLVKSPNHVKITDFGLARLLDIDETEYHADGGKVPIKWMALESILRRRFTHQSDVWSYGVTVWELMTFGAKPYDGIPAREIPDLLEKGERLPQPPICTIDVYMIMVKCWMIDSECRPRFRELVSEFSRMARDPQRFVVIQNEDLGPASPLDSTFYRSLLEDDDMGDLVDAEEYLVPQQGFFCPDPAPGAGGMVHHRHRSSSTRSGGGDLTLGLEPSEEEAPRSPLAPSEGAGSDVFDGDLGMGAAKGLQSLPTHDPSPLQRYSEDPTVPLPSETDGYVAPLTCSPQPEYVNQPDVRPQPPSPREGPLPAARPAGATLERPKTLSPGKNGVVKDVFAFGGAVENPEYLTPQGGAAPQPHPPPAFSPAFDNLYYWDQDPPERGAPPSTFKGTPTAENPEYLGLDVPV

[3] = DRUGMATRIX: Imidazoline I2, Central radioligand binding (ligand: [3H] Idazoxan); type: cell membranes, Rattus norvegicus, Wistar, Cerebral cortex, Membrane; settings: Not Active = under 50% inhibition at 10 µM
[4] = target: Mitogen-activated protein kinase 3 (Homo sapiens, UniProt P27361); assay: DRUGMATRIX: Protein Serine/Threonine Kinase, ERK1 enzyme inhibition (substrate: Myelin Basic Protein); set-up: species or system Escherichia coli; settings: Not Active = under 50% inhibition at 10 µM
Mitogen-activated protein kinase 3, sequence (P27361 whole entry): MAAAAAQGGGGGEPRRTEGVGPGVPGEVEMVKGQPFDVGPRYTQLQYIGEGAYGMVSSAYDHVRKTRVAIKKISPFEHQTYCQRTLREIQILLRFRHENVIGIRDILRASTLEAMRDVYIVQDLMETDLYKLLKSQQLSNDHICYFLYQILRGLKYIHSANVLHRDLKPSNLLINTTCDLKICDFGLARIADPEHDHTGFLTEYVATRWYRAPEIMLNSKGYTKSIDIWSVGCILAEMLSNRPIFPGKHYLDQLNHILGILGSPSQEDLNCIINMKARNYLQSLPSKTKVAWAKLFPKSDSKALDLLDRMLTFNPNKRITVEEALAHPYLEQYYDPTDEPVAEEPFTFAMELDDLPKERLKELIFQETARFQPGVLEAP

[5] = DRUGMATRIX: Phorbol Ester radioligand binding (ligand: [3H] PDBu); type: cell membranes, Mus musculus, ICR, Brain, Membrane; settings: Not Active = under 50% inhibition at 10 µM
[6] = DRUGMATRIX: Calcium Channel Type L, Phenylalkylamine radioligand binding (ligand: [3H] (-)-Desmethoxyverapamil (D-888)); type: cell membranes, Rattus norvegicus, Wistar, Brain, Membrane; settings: Not Active = under 50% inhibition at 10 µM

Melanocortin receptor 4, sequence (P32245 whole entry): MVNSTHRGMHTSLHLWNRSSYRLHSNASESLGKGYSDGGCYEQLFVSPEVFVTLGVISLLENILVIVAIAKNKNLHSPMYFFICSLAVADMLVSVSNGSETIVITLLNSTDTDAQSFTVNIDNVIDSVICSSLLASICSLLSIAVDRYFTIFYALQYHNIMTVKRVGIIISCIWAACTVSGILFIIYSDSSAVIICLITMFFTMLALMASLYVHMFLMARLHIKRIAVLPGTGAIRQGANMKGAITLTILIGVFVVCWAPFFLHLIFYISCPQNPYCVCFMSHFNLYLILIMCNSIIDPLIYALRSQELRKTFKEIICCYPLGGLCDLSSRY

C#C[C@]1(OC(C)=O)CC[C@H]2[C@@H]3CCC4=CC(=O)CC[C@@H]4[C@H]3CC[C@@]21C [NORETHINDRONE ACETATE]
Not Active: IC50 (Melanocortin receptor 4) | IC50 [1] | IC50 (Estrogen receptor beta) | IC50 [2] | IC50 [3] | Ki [3] | IC50 [4] | IC50 [5] | Ki [5] | IC50 [6] | Ki [6]

COc1ccc2[nH]c([S+]([O-])Cc3ncc(C)c(OC)c3C)nc2c1 (configuration not stated) [OMEPRAZOLE]
Not Active: IC50 (Melanocortin receptor 4) | IC50 [1] | IC50 (Estrogen receptor beta) | IC50 [2] | IC50 [3] | Ki [3] | IC50 [4] | IC50 [5] | Ki [5] | IC50 [6] | Ki [6]

Cc1nccn1CC1CCc2c(c3ccccc3n2C)C1=O (configuration not stated) [ONDANSETRON]
Not Active: IC50 (Melanocortin receptor 4) | IC50 [1] | IC50 (Estrogen receptor beta) | IC50 [2] | IC50 [3] | Ki [3] | IC50 [4] | IC50 [5] | Ki [5] | IC50 [6] | Ki [6]

CCn1cc(C(=O)O)c(=O)c2cc(F)c(N3CCN(C)CC3)cc21 [PEFLOXACIN]
Not Active: IC50 (Melanocortin receptor 4) | IC50 [1] | IC50 (Estrogen receptor beta) | IC50 [2] | IC50 [3] | Ki [3] | IC50 [4] | IC50 [5] | Ki [5] | IC50 [6] | Ki [6]

CCCCOc1ccc(OCCCN2CCOCC2)cc1 [PRAMOXINE]
Not Active: IC50 (Melanocortin receptor 4) | IC50 [1] | IC50 (Estrogen receptor beta) | IC50 [2] | IC50 [3] | Ki [3] | IC50 [4] | IC50 [5] | Ki [5] | IC50 [6] | Ki [6]

NC(=O)c1cnccn1 [PYRAZINAMIDE]
Not Active: IC50 (Melanocortin receptor 4) | IC50 [1] | IC50 (Estrogen receptor beta) | IC50 [2] | IC50 [3] | Ki [3] | IC50 [4] | IC50 [5] | Ki [5] | IC50 [6] | Ki [6]

OC(CCN1CCCCC1)(c1ccccc1)C1CCCCC1 (configuration not stated) [TRIHEXYPHENIDYL]
Not Active: IC50 (Melanocortin receptor 4) | IC50 [1] | IC50 (Estrogen receptor beta) | IC50 [2] | IC50 [3] | Ki [3] | IC50 [4] | IC50 [5] | Ki [5] | IC50 [6] | Ki [6]
